Data published in PMC5034290, “Predicted structure of a Minus-C OBP from Batocera horsfieldi (Hope) suggests an intermediate structure in evolution of OBPs” (Scientific Reports, 2016).

How the values were obtained:
BhorOBPm2 [1] = biological target: T1, BhorOBPm2 (Batocera horsfieldi, UniProt D4P5A8); assay: 1-NPN fluorescence competition binding; settings: pH 7.4, 30 mM Tris-HCl, room temperature, 2 μM protein, 2 μM 1-NPN
T1 construct: antennal cDNA, ORF 435 bp, 145 residues printed incl; 21-residue signal peptide; reverse primer encodes ETFIFF-stop
T1 sequence (D4P5A8 entry or part of it): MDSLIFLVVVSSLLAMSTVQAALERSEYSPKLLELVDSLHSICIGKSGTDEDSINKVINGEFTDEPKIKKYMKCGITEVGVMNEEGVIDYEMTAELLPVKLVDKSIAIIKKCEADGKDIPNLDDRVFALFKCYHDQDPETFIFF

BhorOBPm2 [2] = assay: Fluorescence competition-binding assay with 1-NPN probe, wild-type BhorOBPm2; set-up: species or system Batocera horsfieldi; settings: BhorOBPm2, discussion
Procedure: Fluorescence competition-binding assays were performed to determine the binding affinity of the BhorOBPm2 protein for various ligands using 1-NPN as a fluorescent probe. […] The fluorescence of 1-NPN was excited at 337 nm, and emission was recorded at between 350 nm and 600 nm using a RF-5301PC fluorescence spectrophotometer (Shimadzu, Kyoto, Japan), a 1-cm light path, and a quartz cuvette. The competitive binding of ligands was measured using 1-NPN (2 μM) as the fluorescent probe with a stoichiometry of 1:1 (protein:ligand), with the final concentration of each ligand added to the sample ranging from 0 μM to 20 μM. […] The binding data were obtained from three independent measurements. […] Binding affinities (Ki) of the OBPs for each ligand were determined based on the IC50 value (the initial fluorescence level of the competitor concentration reduced by half) using the equation: Ki = [IC50]/(1 + [1-NPN]/K1-NPN), where [1-NPN] is the free concentration of 1-NPN, and K1-NPN is the dissociation constant of the complex BhorOBPm2/1-NPN.

CquiOBP1 = settings: cited from earlier work
BhorOBPm2 [3] = biological target: T1, BhorOBPm2; assay: direct 1-NPN fluorescence titration, Scatchard plot; format: binding; settings: 30 mM Tris-HCl, room temperature, 2 μM protein, 0-28 μM 1-NPN; fluorescent probe
BhorOBPm2 [4] = biological target: T1, BhorOBPm2; assay: 1-NPN fluorescence competition binding; settings: pH 7.4, 30 mM Tris-HCl, room temperature, 2 μM protein, 2 μM 1-NPN; reciprocal Ki, not Ki itself

CCCCCCCCCCCC(C)=O [2-tridecanone]
1/Ki*1000 (BhorOBPm2 [1]): 353.05 1/Ki(uM)*1000

CCCCCCCCCCCCC [tridecane]
1/Ki*1000 (BhorOBPm2 [1]): 262.09 1/Ki(uM)*1000

CCCCCCCCCCCCCCCCCCCCCCCCCCC [heptacosane]
binding affinity (in words) (BhorOBPm2 [2]): low binding affinities | 1/Ki*1000 (BhorOBPm2 [1]): 45.56 1/Ki(uM)*1000

CCCCCCCCC=O [nonanal]
binding affinity (in words) (CquiOBP1): high binding affinities | 1/Ki*1000 (BhorOBPm2 [1]): 50.40 1/Ki(uM)*1000

CCCCCCCC=O [Octanal, octanal]
binding affinity (in words) (CquiOBP1): high binding affinities

CCCCCCCC=O [octanal]
1/Ki*1000 (BhorOBPm2 [1]): 54.09 1/Ki(uM)*1000

c1ccc(Nc2cccc3ccccc23)cc1 [N-phenyl-1-naphthylamine]
Kd (BhorOBPm2 [3]): The dissociation constants (Kd) of the OBPs for 1-NPN were calculated from Scatchard plots

CCCCCCCCCC=O [decanal]
binding affinity (in words) (CquiOBP1): high binding affinities | 1/Ki*1000 (BhorOBPm2 [1]): 102.21 1/Ki(uM)*1000

farnesene
binding affinity (in words) (BhorOBPm2 [2]): highest binding affinity

CCCCCCCCCCCCCC [tetradecane]
1/Ki*1000 (BhorOBPm2 [1]): 94.91 1/Ki(uM)*1000

CCCCCCCCCCCCCCCCCCCCCCCCC [pentacosane]
binding affinity (in words) (BhorOBPm2 [2]): low binding affinities | 1/Ki*1000 (BhorOBPm2 [1]): 1.89 1/Ki(uM)*1000

Farnesene
1/Ki(μM) × 1000 (BhorOBPm2 [4]): 1159.11 1000/μM (reciprocal of Ki in μM, times 1000)
